For assay [1], the system named is WT (wild-type HIV virus; recombinant NL4-3 virus). Briefly: microbe, parasite or virus in culture. It is filed as cell-based, HIV-1. In outline:
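MT-2 cells infected 4-5 days with NL4-3 carrying Renilla luciferase in place of part of nef (Gag P373S), virus made by 293T transfection, with serial inhibitor dilutions. Antiviral activity read as luciferase activity by a modified dual-luciferase read-out.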

Assay [2] deals with HIV-1 NL4-3 gag A364V virus. Briefly: microbe, parasite or virus in culture. It is filed as cell-based. In outline:
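Recombinant NL4-3 reporter virus with Renilla luciferase replacing part of nef, made by transfection of 293T cells. MT-2 cells infected for 4-5 days with serial inhibitor dilutions; antiviral activity quantified by luciferase activity.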

The mark [3] stands for this setting: Human immunodeficiency virus 1, NL43, MT2, read-out: WT (EC50, uM), Table 1 regular screen, class symbol.
Where [4] appears, read: Human immunodeficiency virus 1, NL43, MT2, read-out: A364V (EC50, uM), Table 1 regular screen, class symbol.
The mark [5] stands for this setting: Human immunodeficiency virus 1, NL43, MT2, read-out: WT (EC50, uM), Table 1 regular screen, MT-2 cells, luciferase readout.
Where [6] appears, read: Human immunodeficiency virus 1, NL43, MT2, read-out: A364V (EC50, uM), Table 1 regular screen, MT-2 cells, luciferase readout.

Where two headings read alike, the source gives them in different places.

Turning to `C=C(C)[C@@H]1CC[C@]2(NCC(=O)O)CC[C@]3(C)[C@H](CC[C@@H]4[C@@]5(C)CC=C(C6=CC[C@](CF)(C(=O)O)CC6)C(C)(C)[C@@H]5CC[C@]43C)[C@@H]12` [Example 28, (S)-4-((1R,3aS,5aR,5bR,7aR,11aS,11bR,13aR,13bR)-3a-((carboxymethyl)amino)-5a,5b, 8,8,11a-pentamethyl-1-(prop-1-en-2-yl)-2,3,3a,4,5,5a,5b,6,7,7a,8,11,11a,11b,12,13,13a,13b-octadecahydro-1H-cyclopenta[a]chrysen-9-yl)-1-(fluoromethyl)cyclohex-3-enecarboxylic acid], the EC50 in assay [1] (setting [3]) and in assay [2] (setting [4]) was above 0.05 µM throughout.
On to `C=C(C)[C@@H]1CC[C@]2(NCC(=O)N3CCS(=O)(=O)CC3)CC[C@]3(C)[C@H](CC[C@@H]4[C@@]5(C)CC=C(C6=CC[C@](CF)(C(=O)O)CC6)C(C)(C)[C@@H]5CC[C@]43C)[C@@H]12` [Example 29, (S)-4-((1R,3aS,5aR,5bR,7aR,11aS,11bR,13aR,13bR)-3a-((2-(1,1-dioxidothiomorpholino)-2-oxoethyl)amino)-5a,5b,8,8,11a-pentamethyl-1-(prop-1-en-2-yl)-2,3,3a,4,5,5a,5b,6,7,7a,8,11,11a,11b,12,13,13a,13b-octadecahydro-1H-cyclopenta[a]chrysen-9-yl)-1-(fluoromethyl)cyclohex-3-enecarboxylic acid], for which the results for the half-maximal effective concentration (EC50) in assay [1] (setting [3]) and in assay [2] (setting [4]) were below 0.05 µM and above 0.05 µM, respectively.
On to `C=C(C)[C@@H]1CC[C@]2(NCC(=O)N3CCC(C)(O)CC3)CC[C@]3(C)[C@H](CC[C@@H]4[C@@]5(C)CC=C(C6=CC[C@](CF)(C(=O)O)CC6)C(C)(C)[C@@H]5CC[C@]43C)[C@@H]12` [Example 30, (S)-1-(fluoromethyl)-4-((1R,3aS,5aR,5bR,7aR,11aS,11bR,13aR,13bR)-3a-((2-(4-hydroxy-4-methylpiperidin-1-yl)-2-oxoethyl)amino)-5a,5b,8,8,11a-pentamethyl-1-(prop-1-en-2-yl)-2,3,3a,4,5,5a,5b,6,7,7a,8,11,11a,11b,12,13,13a,13b-octadecahydro-1H-cyclopenta[a]chrysen-9-yl)cyclohex-3-enecarboxylic acid], for which the EC50 in assay [1] (setting [5]) came to 0.00298 µM; in assay [2] (setting [6]) it was 0.551 µM.
For the molecule `C=C(C)[C@@H]1CC[C@]2(NCC(=O)N3CCC(S(C)(=O)=O)CC3)CC[C@]3(C)[C@H](CC[C@@H]4[C@@]5(C)CC=C(C6=CC[C@](CF)(C(=O)O)CC6)C(C)(C)[C@@H]5CC[C@]43C)[C@@H]12` [Example 31, (S)-1-(fluoromethyl)-4-((1R,3aS,5aR,5bR,7aR,11aS,11bR,13aR,13bR)-5a,5b, 8,8,11a-pentamethyl-3a-((2-(4-(methylsulfonyl)piperidin-1-yl)-2-oxoethyl)amino)-1-(prop-1-en-2-yl)-2,3,3a,4,5,5a,5b,6,7,7a,8,11,11a,11b,12,13,13a,13b-octadecahydro-1H-cyclopenta[a]chrysen-9-yl)cyclohex-3-enecarboxylic acid], the EC50 in assay [1] (setting [3]) was below 0.05 µM; in assay [2] (setting [4]), above 0.05 µM.
In the same order, the values of `C=C(C)[C@@H]1CC[C@]2(NCC(=O)N3CCOCC3)CC[C@]3(C)[C@H](CC[C@@H]4[C@@]5(C)CC=C(C6=CC[C@](CF)(C(=O)O)CC6)C(C)(C)[C@@H]5CC[C@]43C)[C@@H]12` [Example 32, (S)-1-(fluoromethyl)-4-((1R,3aS,5aR,5bR,7aR,11aS,11bR,13aR,13bR)-5a,5b, 8,8,11a-pentamethyl-3a-((2-morpholino-2-oxoethyl)amino)-1-(prop-1-en-2-yl)-2,3,3a,4,5,5a,5b,6,7,7a,8,11,11a,11b,12,13,13a,13b-octadecahydro-1H-cyclopenta[a]chrysen-9-yl)cyclohex-3-enecarboxylic acid] are below 0.05 µM and above 0.05 µM.
On the same counts, the results for `C=C(C)[C@@H]1CC[C@]2(NCC(=O)N3CCN(S(C)(=O)=O)CC3)CC[C@]3(C)[C@H](CC[C@@H]4[C@@]5(C)CC=C(C6=CC[C@](CF)(C(=O)O)CC6)C(C)(C)[C@@H]5CC[C@]43C)[C@@H]12` [Example 33, (S)-1-(fluoromethyl)-4-((1R,3aS,5aR,5bR,7aR,11aS,11bR,13aR,13bR)-5a,5b,8,8,11a-pentamethyl-3a-((2-(4-(methylsulfonyl)piperazin-1-yl)-2-oxoethyl)amino)-1-(prop-1-en-2-yl)-2,3,3a,4,5,5a,5b,6,7,7a,8,11,11a,11b,12,13,13a,13b-octadecahydro-1H-cyclopenta[a]chrysen-9-yl)cyclohex-3-enecarboxylic acid] are below 0.05 µM and above 0.05 µM.
In the same order, the values of `C=C(C)[C@@H]1CC[C@]2(NCC(=O)N3CCCS(=O)(=O)CC3)CC[C@]3(C)[C@H](CC[C@@H]4[C@@]5(C)CC=C(C6=CC[C@](CF)(C(=O)O)CC6)C(C)(C)[C@@H]5CC[C@]43C)[C@@H]12` [Example 34, (S)-4-((1R,3aS,5aR,5bR,7aR,11aS,11bR,13aR,13bR)-3a-((2-(1,1-dioxido-1,4-thiazepan-4-yl)-2-oxoethyl)amino)-5a,5b, 8,8,11a-pentamethyl-1-(prop-1-en-2-yl)-2,3,3a,4,5,5a,5b,6,7,7a,8,11,11a,11b,12,13,13a,13b-octadecahydro-1H-cyclopenta[a]chrysen-9-yl)-1-(fluoromethyl)cyclohex-3-enecarboxylic acid] are below 0.05 µM and below 0.05 µM.
In the case of `C=C(C)[C@@H]1CC[C@]2(NCC(=O)N3CCS(=O)(=O)C3)CC[C@]3(C)[C@H](CC[C@@H]4[C@@]5(C)CC=C(C6=CC[C@](CF)(C(=O)O)CC6)C(C)(C)[C@@H]5CC[C@]43C)[C@@H]12` [Example 35, (S)-4-((1R,3aS,5aR,5bR,7aR,11aS,11bR,13aR,13bR)-3a-((2-(1,1-dioxidothiazolidin-3-yl)-2-oxoethyl)amino)-5a,5b,8,8,11a-pentamethyl-1-(prop-1-en-2-yl)-2,3,3a,4,5,5a,5b,6,7,7a,8,11,11a,11b,12,13,13a,13b-octadecahydro-1H-cyclopenta[a]chrysen-9-yl)-1-(fluoromethyl)cyclohex-3-enecarboxylic acid], the EC50 amounted to 0.00157 µM in assay [1] (setting [5]) and 0.157 µM in assay [2] (setting [6]).
With `C=C(C)[C@@H]1CC[C@]2(NCC(=O)N3CCC(S(C)(=O)=O)C3)CC[C@]3(C)[C@H](CC[C@@H]4[C@@]5(C)CC=C(C6=CC[C@](CF)(C(=O)O)CC6)C(C)(C)[C@@H]5CC[C@]43C)[C@@H]12` (stereo partly drawn) [Example 36, (1S)-1-(fluoromethyl)-4-((1R,3aS,5aR,5bR,7aR,11aS,11bR,13aR,13bR)-5a,5b, 8,8,11a-pentamethyl-3a-((2-(3-(methylsulfonyl)pyrrolidin-1-yl)-2-oxoethyl)amino)-1-(prop-1-en-2-yl)-2,3,3a,4,5,5a,5b,6,7,7a,8,11,11a,11b,12,13,13a,13b-octadecahydro-1H-cyclopenta[a]chrysen-9-yl)cyclohex-3-enecarboxylic acid], the EC50 in assay [1] (setting [3]) is below 0.05 µM; in assay [2] (setting [4]), above 0.05 µM.

The EC50 is the concentration at which the effect is half-maximal.
